Data as given in article PMC11808397, “Development of selective nanomolar cyclic peptide ligands as GBA1 enzyme stabilisers” (RSC Chemical Biology, 2025).
Positions of bridges follow the written chain, without caps; N, C: chain ends. Non-standard residues stand in square brackets, D forms with d. Residues, ends and D or L forms follow the SMILES beside them.

Tests used:
[1] = target: T1, recombinant human GBA1 (rhGBA1, Cerezyme) (Homo sapiens, UniProt P04062, R534H); test: Thermostability of rhGBA1, label-free differential scanning fluorimetry (Tycho NT.6); format: binding; details: rhGBA1 at 1 μM, 20 mM HEPES pH 7.0, 100 mM NaCl, 0.5% DMSO, 2 h room temperature; N. D. = not determined due to a lack of stabilisation effect
T1 construct: purchased Cerezyme
T1 sequence (P04062 40-536 R534H): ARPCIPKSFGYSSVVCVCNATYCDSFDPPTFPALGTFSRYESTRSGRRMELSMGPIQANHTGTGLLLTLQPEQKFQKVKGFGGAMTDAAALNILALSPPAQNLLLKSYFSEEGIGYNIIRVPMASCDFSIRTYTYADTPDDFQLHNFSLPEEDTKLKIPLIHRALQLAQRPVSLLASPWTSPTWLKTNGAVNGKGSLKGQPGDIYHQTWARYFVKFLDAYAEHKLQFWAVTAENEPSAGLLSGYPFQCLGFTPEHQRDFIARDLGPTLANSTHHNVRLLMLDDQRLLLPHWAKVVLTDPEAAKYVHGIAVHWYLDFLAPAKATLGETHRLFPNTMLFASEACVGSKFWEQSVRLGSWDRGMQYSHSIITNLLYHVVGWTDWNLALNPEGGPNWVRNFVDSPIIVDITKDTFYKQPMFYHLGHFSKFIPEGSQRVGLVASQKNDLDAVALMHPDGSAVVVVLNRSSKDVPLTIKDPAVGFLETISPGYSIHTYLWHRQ
Experimental: Samples were incubated at room temperature for 2
hours before measurement in the Tycho NT6.
Thermostability assays in rhGBA (Cerezyme)
Varying concentrations of peptides were incubated with 1 µM rhGBA1 in 20 mM HEPES pH 7.0 with 100 mM NaCl, with a final DMSO concentration of 0.5 %, for 2 hours at room temperature. Melting
curves were determined in triplicate using the Tycho NT.6 (NanoTemper), according to manufacturer

Human dermal fibroblasts = test: Toxicity / morphology of human dermal fibroblasts; format: cell-based; details: 3 hours, peptide concentrations above 10 μM (10 and 100 μM)
Experimental: We further investigated GBA1 inhibition in cells. Human dermal fibroblasts were initially incubated with peptide concentrations ranging from 0.1 μM (from 0.001 μM for L4, D1 and D12) to 100 μM of each cyclic peptide for […]. […] To further confirm the inability of these peptides to cross the cell membrane, we conducted in situ competitive activity-based protein profiling (cABPP) experiments using RAW 264.7 monocyte/macrophage-like cells. […] RAW 264.7 cells were then treated with increasing concentrations of cyclic peptides (0, 0.1, 1, 10, and 100 μM) for 4 hours, followed by exposure to a cell-penetrant Bodipy red broad spectrum GBA activity-based probe (ABP), JJB75[58] at 10 nM for 2 hours (Fig. S5 for chemical structures, ESI ^†). […] This cABPP experiment further confirms that the peptides are unable to cross the cell membrane (Fig. S6, ESI ^†).

[2] = Intrinsic stability of cyclic peptides in plasma; format: in vitro ADME; details: 0.1 μM in human plasma, 2 h at 37°C, then rhGBA1 10 nM 30 min, 4-MU activity read-out; n=3, technical duplicates
Experimental: Specifically, high concentrations of all peptides (10–1 μM) led to enzyme binding but also GBA1 inhibition after short incubations (0 to 30 minutes). […] To discard potential degradation of D8 and D12 during plasma experiments, the peptides were incubated in plasma at 0.1 μM for 2 hours, followed by the addition of rhGBA1 to measure its activity. This was compared to controls where D8 and D12 were added to plasma and directly tested for GBA1 activity.
Selective Cyclic Peptide Ligands as GBA1 Stabilizers Katzy et al.
Figure S10. Cerezyme (10 nM) stability in McIlvaine buffer pH 5.2 or in plasma of a healthy individual. GBA1 activity measured in n=3 replicates, in technical duplicates.
Figure S11. Intrinsic compounds stability of cyclic peptides D8 and D12 (0.1 µM) in plasma. rhGBA1 (10 nM) was added to compounds pre-incubated in plasma for 2h at 37°C or readily dissolved in DMSO, and incubated for 30 min, after which 4-MU activity was measured. Error ranges depict standard deviations from n=3 replicates, measured in technical duplicates.
Table S1. IC50 values for GBA1 inhibition in fibroblast lysates. Cells were treated with the peptides at increasing concentrations for 16 h, washed with PBS and homogenized. Reported values are mean ± standard deviation from 3 technical triplicates. N.D.: not determined.
Peptide GBA1 in fibroblast lysates
(1 picture or pasted object on this page, not shown here)

Row | EC50 [1] [µM] | Compound | toxicity to the cells (morphology) (Human dermal fibroblasts) | peptide stability in plasma (inhibitory activity after pre-incubation) [2]
1 | 2.6 ± 1.1 | CC(C)C[C@@H]1NC(=O)CNC(=O)[C@H](Cc2ccccc2)NC(=O)[C@H](CC(C)C)NC(=O)[C@@H]2CCCN2C(=O)[C@H](Cc2ccc(O)cc2)NC(=O)CSC[C@@H](C(=O)N2CCC[C@H]2C(=O)N[C@@H](CC(N)=O)C(=O)N[C@@H](Cc2c[nH]c3ccccc23)C(=O)N[C@@H](Cc2ccccc2)C(=O)N2CCC[C@H]2C(=O)N[C@@H](Cc2ccc(O)cc2)C(=O)N[C@@H](CCC(N)=O)C(=O)N[C@@H](CS)C(N)=O)NC(=O)[C@H](CO)NC(=O)[C@H](Cc2ccccc2)NC1=O [L4] ({CH2CO}-YPLFGLFSCPNWFPYQC-NH2; thioether N-9) | – | –
2 | 2.2 ± 0.5 | CC(C)C[C@H](NC(=O)[C@@H](NC(=O)[C@H](CCCNC(=N)N)NC(=O)[C@@H]1CSCC(=O)N[C@H](Cc2ccc(O)cc2)C(=O)N[C@@H]([C@@H](C)O)C(=O)N2CCC[C@H]2C(=O)NCC(=O)N[C@@H](Cc2ccc(O)cc2)C(=O)N[C@@H](C(C)C)C(=O)N[C@@H](Cc2ccc(O)cc2)C(=O)N1)C(C)C)C(=O)N[C@@H](CCCCN)C(=O)N[C@@H](Cc1ccc(O)cc1)C(=O)N[C@@H](CS)C(N)=O [D8] ({CH2CO}-[dY]TPGYVYCRVLKYC-NH2; thioether N-8) | still attached and otherwise looked healthy | retained their inhibitory activity against rhGBA1
3 | 2 ± 0.5 | CC[C@H](C)[C@H](NC(=O)[C@H](CCCNC(=N)N)NC(=O)[C@@H]1CSCC(=O)N[C@@H](Cc2ccc(O)cc2)C(=O)N[C@@H](C)C(=O)N[C@@H](Cc2ccc(O)cc2)C(=O)N[C@@H](Cc2c[nH]c3ccccc23)C(=O)N[C@@H](Cc2c[nH]c3ccccc23)C(=O)N[C@@H](CC(C)C)C(=O)N1)C(=O)N1CCC[C@H]1C(=O)N[C@@H](Cc1c[nH]c2ccccc12)C(=O)N[C@@H](CC(C)C)C(=O)N[C@@H](CO)C(=O)N[C@H](C(N)=O)C(C)C [L2] ({CH2CO}-YAYWWLCRIPWLSV-NH2; thioether N-7) | – | –
4 | 1.9 ± 0.4 | CC(C)C[C@@H]1NC(=O)CNC(=O)[C@H](CC(C)C)NC(=O)[C@@H](Cc2ccc(O)cc2)NC(=O)CSC[C@@H](C(N)=O)NC(=O)[C@H](CO)NC(=O)[C@H](CCCCN)NC(=O)[C@H](CC(C)C)NC(=O)[C@H](Cc2ccccc2)NC(=O)[C@H](CCCNC(=N)N)NC(=O)[C@H](Cc2ccc(O)cc2)NC(=O)[C@H](Cc2c[nH]c3ccccc23)NC1=O [D12] ({CH2CO}-[dY]LGLWYRFLKSC-NH2; thioether N-12) | still attached and otherwise looked healthy | retained their inhibitory activity against rhGBA1
